The record followed here is ChEMBL document CHEMBL4000213, “New antiprotozoal agents: Synthesis and biological evaluation of different 4-(7-chloroquinolin-4-yl) piperazin-1-yl)pyrrolidin-2-yl)methanone derivatives” (Bioorg Med Chem Lett, 2017).

Structures are written as SMILES. Calls of active or inactive are those of the source. No cut-off for these calls is given here. A value given as a limit tells only on which side of the number the result lay.

Data set [1] deals with Plasmodium falciparum. Description: Antimalarial activity against chloroquine-sensitive Plasmodium falciparum NF54 infected in erythrocytes measured after 48 hrs by Malstat/nitroblue tetrazolium/phenazine ethosulphate reagent based LDH assay. In kind it is functional, cell-based. The settings on record: NF54, 48 h.
Data set [2] in a line: Selectivity index, ratio of IC50 for cytotoxicity against HEK293 cells to IC50 for anti-malarial activity against chloroquine-sensitive Plasmodium falciparum NF54 infected in erythrocytes. In kind it is toxicity, cell-based. Particulars: human; read-out: Ratio IC50.
The test system of data set [3] is Entamoeba histolytica. In words: Anti-amoebic activity against trophozoites of Entamoeba histolytica HM-1:IMSS gassed with nitrogen for 10 mins measured after 72 hrs by eosin staining based micro dilution method. The class given is functional.
Data set [4] concerns HEK293. In words: Cytotoxicity against HEK293 cells measured after 48 hrs by MTT assay. The class given is cell-based. The settings on record: Homo sapiens, HEK293, 48 h. Background: Tetrazolium dyes change colour on reduction, which living cells bring about.
Data set [5] has as its system Anopheles arabiensis. In words: Larvicidal activity against Anopheles arabiensis KGB at 0.5 uM measured after 24 hrs relative to control. In kind it is functional.
Data set [6] is described as follows: Antioxidant activity assessed as inhibition of ferrous chloride-induced lipid peroxidation at 50 uM preincubated for 24 hrs followed by ferrous chloride addition relative to control. In kind it is functional.
For data set [7], the system named is Anopheles arabiensis. In words: Larvicidal activity against Anopheles arabiensis KGB measured after 24 hrs. Particulars: read-out: LD50 (the source's name). In kind it is functional.

Consider `O=C([C@H]1CCCN1S(=O)(=O)c1ccc2ccccc2c1)N1CCN(c2ccnc3cc(Cl)ccc23)CC1`, for which the IC50 (usually the concentration that inhibits the measured activity by half) in data set [1] was determined as 3.45 µM; in data set [3] it was 0.34 µM; in data set [4], 24.4 µM. The selectivity ratio in data set [2] amounted to 7.06. The result in data set [5] was inactive. In addition, in data set [6], the inhibition (as a rule, the change of the read-out against control, counted positive when it falls) is < 1%.

Regarding `Cc1cc(C)c(S(=O)(=O)N2CCC[C@@H]2C(=O)N2CCN(c3ccnc4cc(Cl)ccc34)CC2)c(C)c1`, the figures for the IC50 in data set [1], in data set [3] and in data set [4] were 19.6 µM, 0.14 µM and 14.7 µM, respectively. Further, in data set [2], the selectivity ratio is 0.75. Further, the result in data set [5] was inactive. Further, the inhibition in data set [6] was < 1%.

`COc1ccc(S(=O)(=O)N2CCC[C@@H]2C(=O)N2CCN(c3ccnc4cc(Cl)ccc34)CC2)cc1`: the values for the IC50 in data set [1], in data set [3] and in data set [4] were 4.02 µM, 5.73 µM and 57.7 µM, respectively. The selectivity ratio in data set [2] was determined as 14.3. Moreover, the result in data set [5] was inactive. Further, in data set [6], the inhibition was < 1%.

`Cc1c(C)c2c(c(C)c1O)CCC(C)(C(=O)O)O2` (stereo unspecified): the inhibition in data set [6] turned out to be 74%.

Consider `Clc1ccc(C(c2ccc(Cl)cc2)C(Cl)(Cl)Cl)cc1` [CHLOROPHENOTHANE], for which the LC50 in data set [7] is 0.5 µM. Besides, the Activity in data set [5] amounted to 100%.

As for `O=C([C@H]1CCCN1S(=O)(=O)c1ccc(Cl)cc1)N1CCN(c2ccnc3cc(Cl)ccc23)CC1`, the values for the IC50 in data set [1], in data set [3] and in data set [4] were 6.33 µM, 0.31 µM and 46 µM, respectively. In data set [2], the selectivity ratio was 7.27. The result in data set [5] was inactive. In addition, in data set [6], the inhibition is < 1%.

For the compound `O=C([C@H]1CCCN1S(=O)(=O)c1ccccc1[N+](=O)[O-])N1CCN(c2ccnc3cc(Cl)ccc23)CC1`, the half-inhibitory concentration (IC50) in data set [1] is 4.08 µM; in data set [3] it was 2.08 µM; in data set [4], 57.7 µM. Besides, the selectivity ratio in data set [2] is 14.2. In data set [5], the result was inactive. The inhibition in data set [6] was < 1%.

Compound `CC[C@@]1(O)C(=O)OCc2c1cc1n(c2=O)Cc2cc3ccccc3nc2-1` [CAMPTOTHECIN] came in with a half-inhibitory concentration (IC50) in data set [4] of 0.01 µM.

Take `CC(C)(C)c1ccc(S(=O)(=O)N2CCC[C@@H]2C(=O)N2CCN(c3ccnc4cc(Cl)ccc34)CC2)cc1`: the figures for the IC50 in data set [1], in data set [3] and in data set [4] were 3.21 µM, 0.77 µM and 53.1 µM, respectively. Moreover, the selectivity ratio in data set [2] came out at 16.5. Further, in data set [5], the outcome was inactive. Besides, in data set [6], the inhibition was < 1%.

On to `C=C[C@H]1CN2CC[C@H]1C[C@H]2[C@H](O)c1ccnc2ccc(OC)cc12` [QUININE], for which the figures for the IC50 in data set [1] and in data set [4] were 0.18 µM and 276 µM, respectively. For the same compound, the selectivity ratio in data set [2] was determined as 1490.

As to `Cc1ccc(S(=O)(=O)N2CCC[C@@H]2C(=O)N2CCN(c3ccnc4cc(Cl)ccc34)CC2)cc1`, the IC50 came out at 1.42 µM in data set [1], 0.34 µM in data set [3] and 81.2 µM in data set [4]. Also, the selectivity ratio in data set [2] is 57.1. Moreover, the outcome in data set [5] was inactive. Further, in data set [6], the inhibition is < 1%.

In the case of `O=C([C@H]1CCCN1S(=O)(=O)c1cc(Cl)ccc1Cl)N1CCN(c2ccnc3cc(Cl)ccc23)CC1`, the results for the IC50 in data set [1], in data set [3] and in data set [4] were 4.21 µM, 8.89 µM and 38 µM, respectively. In addition, in data set [2], the selectivity ratio was determined as 9.02. Moreover, in data set [5], the result was inactive. Moreover, in data set [6], the inhibition was < 1%.

`O=C(CN1CCN(c2ccnc3cc(Cl)ccc23)CC1)Nc1ccc(F)cc1`: half-maximal inhibition in data set [3] (IC50) was put at 0.41 µM.

Regarding `O=C(CN1CCN(c2ccnc3cc(Cl)ccc23)CC1)NC1CCCCC1`, inhibition in data set [3] was half-maximal at 0.86 µM (IC50).

Compound `CCCS(=O)(=O)N1CCC[C@@H]1C(=O)N1CCN(c2ccnc3cc(Cl)ccc23)CC1` yielded an IC50 in data set [3] of 6.91 µM. In addition, in data set [5], the outcome was inactive. The inhibition in data set [6] was < 1%.

As to `O=C([C@H]1CCCN1S(=O)(=O)c1ccccc1)N1CCN(c2ccnc3cc(Cl)ccc23)CC1`, the IC50 in data set [1] is 5.33 µM; in data set [3] it was 1.26 µM; in data set [4], 64.1 µM. Moreover, in data set [2], the selectivity ratio is 12. In addition, the result in data set [5] was inactive. In data set [6], the inhibition is < 1%.
